System: 556581-035-R-J1-PDC complex spheroid growth
Test: Anticancer human tumor 556581-035-R-J1-PDC patient-derived ovarian carcinoma cell line growth inhibition [AhR]
Conditions: for IC50: curve of first compound; for viability, T/C: stronger effect = lower value
Procedure, shortened: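 Agents were dosed in half-log steps down from roughly clinical Cmax, or from 10 microM where Cmax was unknown, alone and with AhR antagonists. Read-out: percent test/control growth of tumor spheroids containing HUVEC and MSC stromal cells.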

[1] = second compound 0.1 µM, first compound 0.0316 µM
[2] = second compound 0.1 µM, first compound 0.1 µM
[3] = second compound 0.1 µM, first compound 0.316 µM
[4] = second compound 0.1 µM, first compound 1 µM
[5] = second compound 0.1 µM, first compound 3.16 µM
[6] = second compound 0.1 µM, first compound 10 µM
[7] = second compound 0.316 µM, first compound 0.0316 µM
[8] = second compound 0.316 µM, first compound 0.1 µM
[9] = second compound 0.316 µM, first compound 0.316 µM
[10] = second compound 0.316 µM, first compound 1 µM
[11] = second compound 0.316 µM, first compound 3.16 µM
[12] = second compound 0.316 µM, first compound 10 µM
[13] = second compound 1 µM, first compound 0.0316 µM
[14] = second compound 1 µM, first compound 0.1 µM
[15] = second compound 1 µM, first compound 0.316 µM
[16] = second compound 1 µM, first compound 1 µM
[17] = second compound 1 µM, first compound 3.16 µM
[18] = second compound 1 µM, first compound 10 µM
[19] = second compound 3.16 µM, first compound 0.0316 µM
[20] = second compound 3.16 µM, first compound 0.1 µM
[21] = second compound 3.16 µM, first compound 0.316 µM
[22] = second compound 3.16 µM, first compound 1 µM
[23] = second compound 3.16 µM, first compound 3.16 µM
[24] = second compound 3.16 µM, first compound 10 µM
[25] = second compound 10 µM, first compound 0.0316 µM
[26] = second compound 10 µM, first compound 0.1 µM
[27] = second compound 10 µM, first compound 0.316 µM
[28] = second compound 10 µM, first compound 1 µM
[29] = second compound 10 µM, first compound 3.16 µM
[30] = second compound 10 µM, first compound 10 µM
[31] = second compound 0.1 µM, first compound 0.00316 µM
[32] = second compound 0.1 µM, first compound 0.01 µM
[33] = second compound 0.316 µM, first compound 0.00316 µM
[34] = second compound 0.316 µM, first compound 0.01 µM
[35] = second compound 1 µM, first compound 0.00316 µM
[36] = second compound 1 µM, first compound 0.01 µM
[37] = second compound 3.16 µM, first compound 0.00316 µM
[38] = second compound 3.16 µM, first compound 0.01 µM
[39] = second compound 10 µM, first compound 0.00316 µM
[40] = second compound 10 µM, first compound 0.01 µM
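Throughout, for viability, T/C: compound exposure lasted 7 days; 100% = DMSO vehicle control growth.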

SMILES | IC50 (second compound 0.1 µM) [µM] | IC50 (second compound 0.316 µM) [µM] | IC50 (second compound 1 µM) [µM] | IC50 (second compound 3.16 µM) [µM] | IC50 (second compound 10 µM) [µM] | viability, T/C [1] [%] | viability, T/C [2] [%] | viability, T/C [3] [%] | viability, T/C [4] [%] | viability, T/C [7] [%] | viability, T/C [8] [%] | viability, T/C [9] [%] | viability, T/C [10] [%] | viability, T/C [13] [%] | viability, T/C [14] [%] | viability, T/C [15] [%] | viability, T/C [19] [%] | viability, T/C [20] [%] | viability, T/C [25] [%] | viability, T/C [26] [%] | further results
CC(C)c1c(-c2ccccc2)nc2c(C#N)c[nH]n2c1=O + Cc1ccccc1N=Nc1ccc(NC(=O)c2ccnn2C)c(C)c1 | > 10 | > 10 | > 10 | > 10 | > 10 | 106 | 111 | 103 | 104 | 96.7 | 94.1 | 107 | 96.1 | 110 | 108 | 96 | 95.6 | 92.2 | 94.7 | 86.8 | viability, T/C [5]: 97.7%; viability, T/C [6]: 93.4%; viability, T/C [11]: 85.5%; viability, T/C [12]: 103%; viability, T/C [16]: 106%; viability, T/C [17]: 106%; viability, T/C [18]: 95.8%; viability, T/C [21]: 104%; viability, T/C [22]: 83.6%; viability, T/C [23]: 96%; viability, T/C [24]: 87.9%; viability, T/C [27]: 80.9%; viability, T/C [28]: 91.5%; viability, T/C [29]: 84.5%; viability, T/C [30]: 76.9%
COc1ccc([C@@H](O)c2cc(-c3ncnc4cc(N5CCOCC5)ccc34)c(F)cc2Cl)nn1 + Cc1ccccc1N=Nc1ccc(NC(=O)c2ccnn2C)c(C)c1 | 5.52 | 4.75 | > 10 | 5.11 | 4.4 | 107 | 104 | 102 | 78.2 | 104 | 97.2 | 100 | 78 | 112 | 106 | 110 | 89.1 | 95 | 97.8 | 93.4 | viability, T/C [5]: 59.4%; viability, T/C [6]: 41.3%; viability, T/C [11]: 55.8%; viability, T/C [12]: 41.2%; viability, T/C [16]: 75.5%; viability, T/C [17]: 56.4%; viability, T/C [18]: 47.1%; viability, T/C [21]: 89.1%; viability, T/C [22]: 74.6%; viability, T/C [23]: 56.8%; viability, T/C [24]: 41.5%; viability, T/C [27]: 87.3%; viability, T/C [28]: 76.9%; viability, T/C [29]: 50.4%; viability, T/C [30]: 44.8%
CC[C@@]1(O)C(=O)OCc2c1cc1n(c2=O)Cc2cc3c(CN(C)C)c(O)ccc3nc2-1 + Cc1cncc(-c2nc(NCCc3c[nH]c4ccccc34)c3ncn(C(C)C)c3n2)c1 | > 0.1 | > 0.1 | > 0.1 | > 0.1 | > 0.1 | 85 | 64.3 |  |  | 90.2 | 62.3 |  |  | 83.4 | 57.9 |  | 81.3 | 62.6 | 76.9 | 67.2 | viability, T/C (second compound 0.1 µM, first compound 0.000316 µM): 114%; viability, T/C (second compound 0.1 µM, first compound 0.001 µM): 110%; viability, T/C [31]: 105%; viability, T/C [32]: 97.6%; viability, T/C (second compound 0.316 µM, first compound 0.000316 µM): 108%; viability, T/C (second compound 0.316 µM, first compound 0.001 µM): 115%; viability, T/C [33]: 109%; viability, T/C [34]: 97.4%; viability, T/C (second compound 1 µM, first compound 0.000316 µM): 117%; viability, T/C (second compound 1 µM, first compound 0.001 µM): 115%; viability, T/C [35]: 105%; viability, T/C [36]: 95%; viability, T/C (second compound 3.16 µM, first compound 0.000316 µM): 95.3%; viability, T/C (second compound 3.16 µM, first compound 0.001 µM): 101%; viability, T/C [37]: 104%; viability, T/C [38]: 101%; viability, T/C (second compound 10 µM, first compound 0.000316 µM): 99.8%; viability, T/C (second compound 10 µM, first compound 0.001 µM): 103%; viability, T/C [39]: 99.3%; viability, T/C [40]: 88.1%
COc1cc(C2c3cc4c(cc3C(OC3OC5COC(C)OC5C(O)C3O)C3COC(=O)C23)OCO4)cc(OC)c1O (stereo not given) + Cc1cncc(-c2nc(NCCc3c[nH]c4ccccc34)c3ncn(C(C)C)c3n2)c1 | 8.38 | 5.93 | 5.94 | 7 | > 10 | 97.9 | 97.9 | 87.4 | 72.4 | 94 | 107 | 88.8 | 75.9 | 95.6 | 103 | 92.8 | 96.7 | 92.5 | 83.7 | 76.8 | viability, T/C [5]: 62.2%; viability, T/C [6]: 47.4%; viability, T/C [11]: 65.3%; viability, T/C [12]: 39%; viability, T/C [16]: 78.8%; viability, T/C [17]: 59%; viability, T/C [18]: 42.9%; viability, T/C [21]: 89.2%; viability, T/C [22]: 72.4%; viability, T/C [23]: 64.7%; viability, T/C [24]: 43.7%; viability, T/C [27]: 78.2%; viability, T/C [28]: 73.8%; viability, T/C [29]: 62.9%; viability, T/C [30]: 50.6%
COc1cccc2c1C(=O)c1c(O)c3c(c(O)c1C2=O)CC(O)(C(=O)CO)CC3OC1CC(N)C(O)C(C)O1 (stereo not given) + Cc1cncc(-c2nc(NCCc3c[nH]c4ccccc34)c3ncn(C(C)C)c3n2)c1 | 0.382 | 0.38 | 0.403 | 0.349 | 0.351 | 87 | 89.8 | 58.3 | 6.64 | 84.8 | 82.5 | 58.3 | 6.48 | 81.9 | 73.8 | 62.9 | 77.7 | 74.8 | 80.8 | 68.8 | viability, T/C [5]: 0.94%; viability, T/C [6]: 1.6%; viability, T/C [11]: 0.61%; viability, T/C [12]: 2.51%; viability, T/C [16]: 3.27%; viability, T/C [17]: 0.86%; viability, T/C [18]: 2.01%; viability, T/C [21]: 54.4%; viability, T/C [22]: 2.38%; viability, T/C [23]: 1.27%; viability, T/C [24]: 3.59%; viability, T/C [27]: 54.8%; viability, T/C [28]: 2.24%; viability, T/C [29]: 1.87%; viability, T/C [30]: 3.7%
Nc1ncn(C2CC(O)C(CO)O2)c(=O)n1 (stereo not given) + Cc1cncc(-c2nc(NCCc3c[nH]c4ccccc34)c3ncn(C(C)C)c3n2)c1 | > 1 | > 1 | > 1 | > 1 | > 1 | 106 | 89 | 84.8 | 77.4 | 90.7 | 87 | 93.1 | 85.6 | 104 | 110 | 92.6 | 93.6 | 94.7 | 81.6 | 82 | viability, T/C [31]: 97.2%; viability, T/C [32]: 95.1%; viability, T/C [33]: 102%; viability, T/C [34]: 93.6%; viability, T/C [35]: 91.4%; viability, T/C [36]: 105%; viability, T/C [16]: 82.2%; viability, T/C [37]: 98.2%; viability, T/C [38]: 95.5%; viability, T/C [21]: 88.3%; viability, T/C [22]: 90.2%; viability, T/C [39]: 83.7%; viability, T/C [40]: 78.5%; viability, T/C [27]: 81.8%; viability, T/C [28]: 83.6%

From PubChem BioAssay AID1918999 (Molecular Pharmacology Branch, DTP, NCI, 2023)
